This note sets out measurements from ChEMBL document CHEMBL6083275, “Discovery and evaluation of HW161023 as a potent and orally active AAK1 inhibitor” (Bioorg Med Chem Lett, 2024).

Data set [1] is described as follows: Oral bioavailability in dog at 5 mg/kg. It is filed as ADME, organism-based, Canis lupus familiaris. To be noted: in vivo.
The target in data set [2] is MAP kinase-interacting serine/threonine-protein kinase 1 (Homo sapiens) (UniProt Q9BUB5). Briefly: Inhibition of wildtype MNK1 (unknown origin) at 1 uM relative to control.
MAP kinase-interacting serine/threonine-protein kinase 1 (Homo sapiens), sequence (Q9BUB5 whole entry, looked up): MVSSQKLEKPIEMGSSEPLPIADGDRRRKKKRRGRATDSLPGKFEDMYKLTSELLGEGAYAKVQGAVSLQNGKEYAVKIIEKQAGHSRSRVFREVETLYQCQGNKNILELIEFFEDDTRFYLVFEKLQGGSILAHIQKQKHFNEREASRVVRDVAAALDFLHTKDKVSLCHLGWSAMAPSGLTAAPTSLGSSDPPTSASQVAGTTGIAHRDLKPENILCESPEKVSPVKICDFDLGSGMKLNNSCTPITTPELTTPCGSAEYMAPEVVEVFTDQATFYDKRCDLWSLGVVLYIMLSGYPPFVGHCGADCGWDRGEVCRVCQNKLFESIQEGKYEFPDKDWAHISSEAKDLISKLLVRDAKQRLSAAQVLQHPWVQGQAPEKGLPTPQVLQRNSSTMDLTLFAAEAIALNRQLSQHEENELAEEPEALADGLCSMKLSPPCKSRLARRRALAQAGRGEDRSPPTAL
For data set [3], the target named is MAP kinase-interacting serine/threonine-protein kinase 2 (Homo sapiens) (UniProt Q9HBH9). As to the kind of experiment: Inhibition of wildtype MNK2 (unknown origin) at 1 uM relative to control.
MAP kinase-interacting serine/threonine-protein kinase 2 (Homo sapiens), sequence (Q9HBH9 whole entry, looked up): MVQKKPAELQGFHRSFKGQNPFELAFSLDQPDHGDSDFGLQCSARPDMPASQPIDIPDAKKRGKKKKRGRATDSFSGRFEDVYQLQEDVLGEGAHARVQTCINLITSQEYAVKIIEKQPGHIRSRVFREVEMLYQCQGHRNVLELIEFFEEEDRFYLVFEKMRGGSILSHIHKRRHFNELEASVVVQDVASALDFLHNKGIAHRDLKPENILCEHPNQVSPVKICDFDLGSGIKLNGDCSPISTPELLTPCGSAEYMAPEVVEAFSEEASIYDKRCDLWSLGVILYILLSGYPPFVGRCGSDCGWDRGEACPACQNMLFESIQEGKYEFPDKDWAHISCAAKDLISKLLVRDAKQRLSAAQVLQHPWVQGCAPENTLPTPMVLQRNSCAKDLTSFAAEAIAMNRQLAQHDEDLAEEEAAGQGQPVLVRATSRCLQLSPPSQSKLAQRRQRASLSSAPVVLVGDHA
Data set [4] in a line: Metabolic stability in mouse liver microsomes assessed as half-life. It is filed as ADME, Microsome. In general terms: Liver microsomes are a subcellular fraction often used to study metabolism.
Data set [5] can be described thus: Apparent volume of distribution in C57BL/6J mouse at 1 mg/kg, iv. It is filed as ADME, organism-based. To be noted: in vivo, read-out: Vz.
Data set [6] is described as follows: Oral bioavailability in rat at 10 mg/kg. Format: ADME, organism-based. To be noted: in vivo.
The nature of data set [7]: Tmax in C57BL/6J mouse at 10 mg/kg, po. It is filed as ADME, organism-based. To be noted: in vivo.
Data set [8] is described as follows: Half-life in dog at 1 mg/kg, iv. Format: ADME, organism-based, Canis lupus familiaris. To be noted: in vivo.
Data set [9] in a line: Metabolic stability in human liver microsomes assessed as half-life. Format: ADME, Microsome.
The nature of data set [10]: Clearance in dog at 1 mg/kg, iv. Format: ADME, organism-based, Canis lupus familiaris. To be noted: in vivo.
Data set [11] is described as follows: Tmax in rat at 10 mg/kg, po. To be noted: in vivo. It is filed as ADME, organism-based.
The nature of data set [12]: Protein binding in human plasma assessed as unbound fraction. Format: ADME, cell-free.
Data set [13] is described as follows: Cytotoxicity against human HepG2 cells. Format: toxicity, cell-based.
Data set [14] in a line: AUC (0 to 24 hrs) in dog at 5 mg/kg, po. Format: ADME, organism-based, Canis lupus familiaris. To be noted: in vivo.
Data set [15] is described as follows: AUC (0 to 24 hrs) in C57BL/6J mouse at 10 mg/kg, po. To be noted: in vivo. Format: ADME, organism-based.
Data set [16] in a line: Metabolic stability in hepatocytes (unknown origin) assessed as half-life. Format: ADME, cell-based, Hepatocyte.
Data set [17] in a line: Protein binding in rat plasma assessed as unbound fraction. It is filed as ADME, cell-free.
Data set [18] can be described thus: Clearance in rat at 1 mg/kg, iv. To be noted: in vivo. Format: ADME, organism-based.
The nature of data set [19]: Half-life in rat at 1 mg/kg, iv. It is filed as ADME, organism-based. To be noted: in vivo.
Data set [20] in a line: Protein binding in mouse plasma assessed as unbound fraction. Format: ADME, cell-free.
The target of data set [21] is BMP-2-inducible protein kinase (Homo sapiens) (UniProt Q9NSY1). As to the kind of experiment: Inhibition of wildtype BIKE (unknown origin) at 1 uM relative to control.
BMP-2-inducible protein kinase (Homo sapiens), sequence (Q9NSY1 whole entry, looked up): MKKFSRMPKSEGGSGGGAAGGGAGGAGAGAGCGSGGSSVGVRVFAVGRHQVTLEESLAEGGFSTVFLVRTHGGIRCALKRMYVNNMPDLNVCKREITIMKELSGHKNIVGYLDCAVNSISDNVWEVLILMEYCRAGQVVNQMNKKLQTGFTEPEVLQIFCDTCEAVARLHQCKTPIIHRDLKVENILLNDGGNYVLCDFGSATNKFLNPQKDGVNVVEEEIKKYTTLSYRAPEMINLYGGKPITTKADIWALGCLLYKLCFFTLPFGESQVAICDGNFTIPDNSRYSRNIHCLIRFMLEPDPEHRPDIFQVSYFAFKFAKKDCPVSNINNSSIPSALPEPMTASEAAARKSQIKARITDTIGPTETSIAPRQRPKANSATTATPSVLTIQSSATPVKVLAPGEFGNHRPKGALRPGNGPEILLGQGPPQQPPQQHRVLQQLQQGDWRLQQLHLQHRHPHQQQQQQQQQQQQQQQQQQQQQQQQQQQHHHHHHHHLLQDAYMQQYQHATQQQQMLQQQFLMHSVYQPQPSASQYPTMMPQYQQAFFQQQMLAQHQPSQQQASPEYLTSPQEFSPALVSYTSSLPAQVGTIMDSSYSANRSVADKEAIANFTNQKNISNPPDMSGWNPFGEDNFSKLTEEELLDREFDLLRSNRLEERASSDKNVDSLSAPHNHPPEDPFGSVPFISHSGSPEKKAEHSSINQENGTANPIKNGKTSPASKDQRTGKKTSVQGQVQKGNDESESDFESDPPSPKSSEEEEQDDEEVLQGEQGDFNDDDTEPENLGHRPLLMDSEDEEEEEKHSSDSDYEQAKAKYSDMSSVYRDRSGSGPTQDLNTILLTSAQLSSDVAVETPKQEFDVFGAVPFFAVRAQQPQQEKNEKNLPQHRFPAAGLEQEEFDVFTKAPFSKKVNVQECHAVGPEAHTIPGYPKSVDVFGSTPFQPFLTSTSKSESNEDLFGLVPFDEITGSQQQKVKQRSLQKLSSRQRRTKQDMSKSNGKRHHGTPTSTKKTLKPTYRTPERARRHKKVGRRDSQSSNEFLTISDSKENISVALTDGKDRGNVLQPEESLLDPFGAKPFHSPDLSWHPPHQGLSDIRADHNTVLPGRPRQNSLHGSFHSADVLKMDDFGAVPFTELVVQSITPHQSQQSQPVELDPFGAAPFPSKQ

Each structure is given as a SMILES string.

Consider `CC(C)C[C@](C)(N)COc1ccc(-c2ccnc(C(F)F)c2)c2nccn12`, for which the bioavailability worked out at 140% in data set [1] and 118% in [6]. The inhibition was 91% in [2], 88% in data set [3] and 39% in data set [21]. Besides, the half-life in data set [4] was 0.717 h; in data set [8], 3.3 h; in data set [9] it was 1.47 h; in data set [16], 46.4 h; in data set [19] it was 10.3 h. The Vd in data set [5] stood at 18 L/kg. Moreover, the Tmax in data set [7] was determined as 1.2 h; in data set [11] it was 5.3 h. The clearance in [10] is 48.3 mL/min/kg; in [18] it was 31.7 mL/min/kg. For the same molecule, the unbound share (fraction unbound) in data set [12] turned out to be 0.193; in data set [17], 0.185; in [20], 0.128. The molecule further came in with an IC50 in [13] of 51 µM. For the same molecule, the figures for the AUC(0-t) in data set [14] and in [15] were 2270 ng·h/mL and 9150 ng·h/mL, respectively.

Broadly, the inhibition is the relative decrease from the control value, in per cent. The low end stands for a weak effect, the high end for a strong effect. Usually half-life stands for the time needed for the level to fall by half in the phase considered. A word on the Tmax: it is the time at which the peak concentration occurs. Broadly, the clearance is the volume of plasma or blood freed of the substance per unit of time. As usually defined, the fraction unbound is the share of the substance not bound to proteins or other matrix. The IC50 is the concentration that gives 50% inhibition. High values mean weaker potency, low ones greater potency. In general, AUC(0-t) refers to the area under the concentration-time curve up to a stated or last time point. Lower therefore signals low exposure.
